# Results taken from patent US11318079B2, “Polyhydroxylated (1-phenyl-2-phenyl) ethylene derivatives as an anti-ageing and photoprotective agent” (L'OREAL, priority 2015, dated 2022).
# Like-named read-outs stand apart in the source and are kept apart here.
# Legend:
# [1] = system: AMPK pathway (pACC, phosphorylated Acetyl-CoA Carboxylase) in NHEK cells; test: Evaluation on AMPK pathway in NHEK cells by pACC immunolabeling; type: cell-based, Human; conditions: for % control (labeling % of the pACC compared to the control brought back to 100%) / global increase of the pACC labelling: NHEK cells, Compound 4 at 10 μM; for % control (labeling % of the pACC compared to the control brought back to 100%): 48 hours incubation, n=3, AICAR at 500 μM (0.5% DMSO); for global increase of the pACC labelling: AICAR reference at 500 μM
# Method: Evaluation of the effect of compound 4 on the AMPK pathway in NHEK cells (Normal Human Epidermal Keratinocytes) by analysis of the pACC (Acetyl-CoA Carboxylase) phosphorylated form expression. This effect is studied by fluorescent immunolabeling and image analysis.
# Keratinocytes are seeded in 96-well microplates and grown for 24 hours in a culture medium. The medium is then replaced by the test medium and cells are grown for 24 supplementary hours. Finally, the medium is replaced by the test medium comprising or not (control) the tested compounds, the reference (AICAR) or the control solvent (0.1% or 0.5% DMSO) then the cells are incubated for 48 hours. All the test conditions were carried out with n=3.
# After incubation, the immunolabeling is done. The results are expressed in labeling % of the pACC compared to the control brought back to 100%.
# [2] = system: keratinocytes of the HaCaT line; test: Production of reactive oxygen species (ROS) induced by UVA in HaCaT keratinocytes (DHR123 or DCFH-DA probe); type: cell-based; conditions: for EC50: Homo sapiens, light or radiation study, 24 h incubation, UVA exposure, concentration allowing 50% photoprotection (500 μM vitamin C = 100%); for ROS production decrease: UVA-induced ROS
# Method: The decrease of the production of reactive oxygen species in keratinocytes of the HaCaT line is evaluated by detection, using the Dihydrorhodamine 123 (DHR123) probe or using Dichloro-dihydro-fluorescein diacetate (DCFH-DA) probe, the ROS production is induced by exposition to UVA after 24 h of incubation in the presence of the compounds to be tested. The DHR123 and DCFH-DA probes are indicators of the presence of reactive oxygen species (ROS). HaCaT keratinocytes in monolayer culture are placed in the presence of a solution of a compound to be tested at various concentrations (0.4-200 μM) in the medium. After 24 h of incubation, the cells are exposed to UVA, then incubated with the DHR123 probe or DCFH-DA probe for 1 h. The fluorescence of the probe is then measured. A viability test is carried out in parallel in order to discard the cytotoxic compounds. In parallel, the keratinocytes are incubated with vitamin C acting as a positive control and a standard: an incubation with 500 μM of vitamin C corresponds to 100% photoprotection. The dose-effect curves of the fluorescence detected as a function of the concentration of compounds (to be tested) present in the medium make it possible to calculate the effective dose EC50 which corresponds to the concentration of compound (to be tested) that allows 50% photoprotection of the keratinocytes.
# [3] = DCFH-DA probe, read-out: EC50- DCFH-DA
# [4] = DHR123 probe, read-out: EC50 -DHR123
structure (smiles),measurement,setting,value
"NC(=O)c1ncn([C@@H]2O[C@H](CO)[C@@H](O)[C@H]2O)c1N [AICAR, reference compound]",% control (labeling % of the pACC compared to the control brought back to 100%),[1],117%
same,global increase of the pACC labelling,[1],17%
COc1cc(/C=C/c2ccc(OC(C)=O)c(OC)c2)ccc1O [Compound 5],EC50,[2]; [3],29 µM
same,ROS production decrease,[2],Yes
COc1ccc(/C=C/c2ccc(O)c(OC)c2)cc1 [Compound 1],EC50,[2]; [3],20 µM
same,EC50,[2]; [4],36 µM
same,ROS production decrease,[2],Yes
COc1cc(/C=C/c2ccc(OC)c(OC)c2)ccc1O [Compound 4],EC50,[2]; [4],100 µM
same,ROS production decrease,[2],Yes
same,activation of the AMPK route in normal human keratinocytes,[1]; 10 μM,capable to active the AMPK route
same,% control (labeling % of the pACC compared to the control brought back to 100%),[1],119%
same,global increase of the pACC labelling,[1],19%
